Measured values published in patent US20250352981A1, “PHOSPHOROUS BORON-BONDED COMPOUNDS FOR CAPTURING, STORING AND/OR UTILIZING CARBON DIOXIDE AND RELATED PRODUCTS COMPOSITIONS METHODS AND SYSTEMS” (California Institute of Technology, priority 2024, published 2025).

Legend:
[1] = DFT-predicted CO2 binding free energy and charge/bond-order analysis of phosphido-boranes
Protocol: (§1) All Density Functional Theory calculations were performed using the Jaguar v10.9 software from Schrodinger Inc. All calculations utilized the M06-2X meta-GGA functional with the D3 empirical correction for London Dispersion forces.^21, 22
(§2) All atoms were described by the 6-311G**++ Pople basis set,^23 augmented with polarization and diffuse functions.
(§3) All calculations included a continuum solvent treatment described by the Polarizable Continuum Model (CPCM).^24
(§4) Unless otherwise noted, we used solvent parameters matching tetrahydrofuran (dielectric constant=7.6, probe radius=2.52).
(§5) Vibrational frequency calculations were performed to confirm that all geometries are true minima (no negative eigenmodes of the Hessian) and to compute thermochemical properties such as enthalpy (H), entropy (S), and free energies (G) at 298.15 K. Because librational modes are hindered in solvent media, we corrected our free energies by reducing translational and rotational entropy modes by 50%.

[2] = DFT transition state barrier for CO2 binding; conditions: Li+ coordinated to a CO2 oxygen and the hydrides of BH3−
Protocol: as §1, §2, §3, §4, §5

[3] = CO2 gas bubbled through phosphido-borane salt in THF, NMR analysis; conditions: CO2 at 1 atm, room temperature
Protocol: Here 0.2218 g of the resulting phosphido-borane was dissolved in 3 ml of tetrahydrofuran (THF) in a 10 ml valve. Here 2 ml of THF was used to dissolve 0.1856 g of lithium bis(trimethylsilyl)amide (LiHMDS). The solution of LiHMDS was added drop wise to the solution of Li[Ph2PBH3] to minimize side reactions.
CO2 gas was then bubbled through lithiated anionic phosphido-borane salt at 1 atm and room temperature for about 10 mins to saturate it with CO2.
A typical one pot procedure for preparing the CO2 adducts was adding a solution of Ph2PHBH3 (5.314 mmol, in 4 ml of THF) to solution of MHMDs (5.314 mmol, in 4 ml of THF) dropwisely. An aliquot of the resulting was analyzed with the nmr to confirm the complete formation of M(Ph2PBH3) salt. The bulk solution was then saturated with CO2 gas under standard atmospheric pressure and temperature. The product was then crushed out with hexanes resulting in a whitish precipitate. Yield 98.5%

anionic diphenylphosphido-borane [BoPh 4]
increase in binding energy on increasing counterion distance ([1]; Li+ distance from the O—BH3 pocket increased by 0.35 Å): +5.9 kcal
increase of overall ΔG by explicit solvation ([1]; explicit THF solvation vs continuum): +2.9 kcal/mol
reduction of ΔG‡ relative to Na+ [2]: ~8.4 kJ/mol
CO2 binding observed in experiment ([3]; listed as LiPh2PBH3): binds successfully with the CO2 molecule
CO2 binding observed in experiment ([3]; listed as lithiated anionic phosphido-borane salt): formation of P—CO2 adducts
